The source of these data is publication PMC11740121 (ACS Omega, 2025).

SMILES strings stand for the structures.

This assay addresses PRMT5 (protein arginine methyltransferase 5) (Homo sapiens, UniProt O14744). The experiment in a line: SPR with immobilized PRMT5 N-terminal TIM barrel. It is filed as binding.

PRMT5 (protein arginine methyltransferase 5), sequence (O14744 1-292): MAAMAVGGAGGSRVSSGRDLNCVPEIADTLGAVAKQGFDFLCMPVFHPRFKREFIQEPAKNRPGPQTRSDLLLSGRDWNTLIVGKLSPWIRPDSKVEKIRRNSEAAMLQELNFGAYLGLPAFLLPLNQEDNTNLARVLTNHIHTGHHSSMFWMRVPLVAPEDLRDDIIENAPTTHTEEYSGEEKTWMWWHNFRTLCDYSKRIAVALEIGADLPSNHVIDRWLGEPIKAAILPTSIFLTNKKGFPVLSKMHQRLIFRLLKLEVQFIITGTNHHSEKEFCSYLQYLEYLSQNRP

For `O=C(Cc1csc(-c2ccc(C(F)(F)F)cc2)n1)Nc1ccc2oc(=O)[nH]c2c1` [Z319334062], the Kd – broadly, the equilibrium constant for the complex coming apart – worked out at 21.5 µM.
